Results on 5 compounds are retold here after patent US12152048B2, “Nitroxoline prodrug and use thereof” (Jiangsu Yahong Meditech Co., Ltd., priority 2018, dated 2024).

Series [1] in a line: Determination of water solubility in phosphate buffer. Format: physicochemical. The conditions noted are these: aqueous buffer, thermodynamic from solid; phosphate buffer pH 7.4, room temperature, 24 hours. An outline of the steps: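 Thermodynamic solubility: compound concentration measured by LC/MS/MS in the vacuum filtrate after 24 h shaking at room temperature of 2 mg powder in 500 μL phosphate buffer at pH 1.2, 4.5, 6.8 or 7.4.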

Series [2] can be described thus: Stability in mouse liver microsome. The conditions noted are these: 2 μM, 37° C., 30 minutes. It is filed as in vitro ADME. (Liver microsomes are a subcellular fraction often used to study metabolism.)
The nature of another series: Stability in dog plasma. It is filed as in vitro ADME.
Series [3] in a line: Stability in human plasma.
Description: (§1) Experimental instruments: thermostatic shaker (SHA-B, Guohua Electric Appliance Co., Ltd.); centrifuge (5810R, Eppendorf); mass spectrometry (AP4000, Applied Biosystems, USA); liquid chromatography (LC-30AD, Shimadzu); sample injector (CTC Analytics AG System, CTC).
(§2) Test animals: plasma of human (batch number: BRH1343165), rat (batch number: RAT336728), mouse (batch number: MSE280000), dog (batch number: BGL99137) and monkey (batch number: PH-Monkey-20180821) are purchased from Shanghai Sixin Biological Technology Co., Ltd.
(§3) Experimental process: the compound of the present invention was dissolved in an organic solvent to obtain a 1 mM working solution. 3 μL of the working solution were added to 597 μL of pre-incubated human or rat plasma and mixed well. 50 μL of the solution were immediately taken out as the 0 minute sample. The remaining sample was incubated at 37° C., and 50 μL of sample were taken out at 15, 30, 60 and 120 minutes respectively. All the samples taken out were immediately processed to precipitate protein, and centrifuged to obtain a supermate for the determination of the compound concentration by LC/MS/MS.
The nature of series [4]: Stability in dog liver microsome. The conditions noted are these: 2 μM, 37° C., 30 minutes.
Series [5] is described as follows: Stability in rat liver microsome. Conditions: 2 μM, 37° C., 30 minutes.
Series [6] in a line: Stability in human liver microsome. Conditions: 2 μM, 37° C., 30 minutes.
Series [7] can be described thus: Stability in plasma, overall conclusion (species not stated). Conditions: conclusion in words.

Values after ≈ are worked out from the molar mass of the structure shown.

Description for Stability in dog plasma: as §1, §2, §3
Description for Stability in rat plasma: as §1, §2, §3

As a reminder, the solubility is how much of the substance goes into solution per volume. High values mean much dissolved substance, low ones little dissolved substance. As to `CCC(NC(=O)OCOc1ccc([N+](=O)[O-])c2cccnc12)C(=O)OC` (stereo not shown) [Compound 54, methyl 2-(((5-nitroquinolin-8-yloxy)methoxy)formamido)butanoate], the solubility at 24 h in series [1] came out at 24.4 µg/mL (≈ 67.3 µM). Further, the figures for the “Percentage of the compound remaining in mouse liver microsome” value in series [2] (with coenzyme) and in series [2] (without coenzyme) were 9.85% and 31.90%, respectively. In addition, the “Percentage of the compound remaining in plasma” value came to 100.0% in “Stability in dog plasma” (0 minute); 100.3% in “Stability in dog plasma” (37° C., 15 minutes); 99.2% in “Stability in dog plasma” (37° C., 30 minutes); 92.4% in “Stability in dog plasma” (37° C., 60 minutes); 74.7% in “Stability in dog plasma” (37° C., 120 minutes); 100.0% in the series “Stability in rat plasma” (0 minute). In addition, the “Percentage of the compound remaining in plasma” value in the series “Stability in rat plasma” (37° C., 15 minutes) is given as 0.0%; in “Stability in rat plasma” (37° C., 30 minutes) it was 0.0%; in the series “Stability in rat plasma” (37° C., 60 minutes), 0.0%; in “Stability in rat plasma” (37° C., 120 minutes) it was 0.0%; in series [3] (0 minute), 100.0%; in series [3] (37° C., 15 minutes), 108.6%. Besides, the “Percentage of the compound remaining in plasma” value in [3] (37° C., 30 minutes) was 103.3%; in series [3] (37° C., 60 minutes) it was 93.4%; in [3] (37° C., 120 minutes) it was 71.9%. Moreover, the figures for the “Percentage of the compound remaining in dog liver microsome” value in series [4] (with coenzyme) and in [4] (without coenzyme) were 61.38% and 70.31%, respectively. Also, the “Percentage of the compound remaining in rat liver microsome” value was 10.77% in [5] (with coenzyme) and 13.97% in [5] (without coenzyme). Also, the figures for the “Percentage of the compound remaining in human liver microsome” value in [6] (with coenzyme) and in series [6] (without coenzyme) were 31.49% and 29.40%, respectively. Also, the stability in plasma result in [7] is on record as “high stability”.

As for `CCC(C)C(NC(=O)OCOc1ccc([N+](=O)[O-])c2cccnc12)C(=O)OC` (stereo not shown) [Compound 55, methyl 3-methyl-2-(((5-nitroquinolin-8-yloxy)methoxy)formamido)pentanoate], the solubility at 24 h in [1] was determined as 15.5 µg/mL (≈ 39.7 µM). For the same compound, the “Percentage of the compound remaining in mouse liver microsome” value in series [2] (with coenzyme) amounted to 2.01%; in series [2] (without coenzyme), 90.39%. The “Percentage of the compound remaining in plasma” value was determined as 100.0% in the series “Stability in dog plasma” (0 minute); 99.6% in the series “Stability in dog plasma” (37° C., 15 minutes); 97.5% in the series “Stability in dog plasma” (37° C., 30 minutes); 83.3% in the series “Stability in dog plasma” (37° C., 60 minutes); 70.1% in “Stability in dog plasma” (37° C., 120 minutes); 100.0% in the series “Stability in rat plasma” (0 minute). Moreover, the “Percentage of the compound remaining in plasma” value in the series “Stability in rat plasma” (37° C., 15 minutes) stood at 48.9%; in the series “Stability in rat plasma” (37° C., 30 minutes), 24.7%; in “Stability in rat plasma” (37° C., 60 minutes) it was 5.0%; in “Stability in rat plasma” (37° C., 120 minutes), 0.3%; in [3] (0 minute), 100.0%; in series [3] (37° C., 15 minutes) it was 91.3%. Further, the “Percentage of the compound remaining in plasma” value is given as 94.5% in [3] (37° C., 30 minutes); 92.1% in series [3] (37° C., 60 minutes); 68.7% in series [3] (37° C., 120 minutes). In addition, the results for the “Percentage of the compound remaining in dog liver microsome” value in series [4] (with coenzyme) and in [4] (without coenzyme) were 70.73% and 84.65%, respectively. Moreover, the “Percentage of the compound remaining in rat liver microsome” value in [5] (with coenzyme) was found to be 8.58%; in [5] (without coenzyme), 52.76%. Also, the “Percentage of the compound remaining in human liver microsome” value in series [6] (with coenzyme) stood at 61.24%; in series [6] (without coenzyme) it was 81.91%. The stability in plasma result in series [7] was “high stability”.

`CCC(C)C(C(=O)OC)N(C)C(=O)OCOc1ccc([N+](=O)[O-])c2cccnc12` (stereo not shown) [Compound 56, methyl 3-methyl-2-(methyl(((5-nitroquinolin-8-yloxy)methoxy)formyl)amino)pentanoate] registered a solubility at 24 h in series [1] of 39.8 µg/mL (≈ 98.2 µM). Further, the “Percentage of the compound remaining in mouse liver microsome” value in series [2] (with coenzyme) is reported as 0.44%; in series [2] (without coenzyme) it was 103.05%. Also, the “Percentage of the compound remaining in plasma” value in “Stability in rat plasma” (0 minute) amounted to 100.0%; in the series “Stability in rat plasma” (37° C., 15 minutes) it was 2.8%; in “Stability in rat plasma” (37° C., 30 minutes) it was 0.1%; in the series “Stability in rat plasma” (37° C., 60 minutes), 0.0%; in the series “Stability in rat plasma” (37° C., 120 minutes) it was 0.0%; in series [3] (0 minute), 100.0%. The “Percentage of the compound remaining in plasma” value in series [3] (37° C., 15 minutes) turned out to be 98.9%; in series [3] (37° C., 30 minutes), 98.2%; in [3] (37° C., 60 minutes), 103.6%; in [3] (37° C., 120 minutes) it was 93.2%. In addition, the “Percentage of the compound remaining in dog liver microsome” value in [4] (with coenzyme) came to 14.94%; in [4] (without coenzyme), 118.35%. Moreover, the “Percentage of the compound remaining in rat liver microsome” value in [5] (with coenzyme) was found to be 0.45%; in [5] (without coenzyme) it was 62.17%. Besides, the “Percentage of the compound remaining in human liver microsome” value is 0.12% in series [6] (with coenzyme) and 71.66% in series [6] (without coenzyme). In addition, in series [7], the stability in plasma entry is “high stability”.

Take `COC(=O)CN(C)C(=O)Oc1ccc([N+](=O)[O-])c2cccnc12` [Compound 57, methyl 2-(methyl((5-nitroquinolin-8-yloxy)formyl)amino)acetate]: in series [1], the solubility at 24 h amounted to 138 µg/mL (≈ 432 µM). Also, the “Percentage of the compound remaining in mouse liver microsome” value in series [2] (with coenzyme) came to 5.57%; in [2] (without coenzyme), 76.69%. Moreover, the “Percentage of the compound remaining in plasma” value in “Stability in rat plasma” (0 minute) turned out to be 100.0%; in “Stability in rat plasma” (37° C., 15 minutes), 0.1%; in “Stability in rat plasma” (37° C., 30 minutes), 0.0%; in the series “Stability in rat plasma” (37° C., 60 minutes), 0.0%; in “Stability in rat plasma” (37° C., 120 minutes), 0.0%; in series [3] (0 minute) it was 100.0%. Also, the “Percentage of the compound remaining in plasma” value in series [3] (37° C., 15 minutes) is on record as 99.8%; in series [3] (37° C., 30 minutes), 93.0%; in series [3] (37° C., 60 minutes), 76.2%; in series [3] (37° C., 120 minutes), 60.2%. The “Percentage of the compound remaining in dog liver microsome” value amounted to 0.03% in series [4] (with coenzyme) and 75.50% in series [4] (without coenzyme). The results for the “Percentage of the compound remaining in rat liver microsome” value in series [5] (with coenzyme) and in series [5] (without coenzyme) were 23.06% and 44.33%, respectively. Also, the results for the “Percentage of the compound remaining in human liver microsome” value in series [6] (with coenzyme) and in series [6] (without coenzyme) were 0.16% and 0.15%, respectively. For the same compound, the stability in plasma entry in series [7] is reported as “high stability”.

As for `CC(C)OC(=O)[C@H](C)NP(=O)(OCOc1ccc([N+](=O)[O-])c2cccnc12)Oc1ccccc1` (stereo partly shown) [Compound 75], the “Percentage of the compound remaining in plasma” value came out at 100.0% in the series “Stability in dog plasma” (0 minute); 98.3% in the series “Stability in dog plasma” (37° C., 15 minutes); 95.6% in the series “Stability in dog plasma” (37° C., 30 minutes); 80.8% in “Stability in dog plasma” (37° C., 60 minutes); 67.8% in the series “Stability in dog plasma” (37° C., 120 minutes); 100.0% in the series “Stability in rat plasma” (0 minute). Besides, the “Percentage of the compound remaining in plasma” value in the series “Stability in rat plasma” (37° C., 15 minutes) is given as 0.0%; in “Stability in rat plasma” (37° C., 30 minutes), 0.0%; in the series “Stability in rat plasma” (37° C., 60 minutes), 0.0%; in the series “Stability in rat plasma” (37° C., 120 minutes) it was 0.0%; in series [3] (0 minute), 100.0%; in series [3] (37° C., 15 minutes), 98.5%. Further, the “Percentage of the compound remaining in plasma” value in series [3] (37° C., 30 minutes) is 94.0%; in series [3] (37° C., 60 minutes), 87.2%; in [3] (37° C., 120 minutes) it was 65.5%. Moreover, the figures for the “Percentage of the compound remaining in dog liver microsome” value in [4] (with coenzyme) and in series [4] (without coenzyme) were 12.95% and 48.90%, respectively. Besides, the figures for the “Percentage of the compound remaining in rat liver microsome” value in [5] (with coenzyme) and in series [5] (without coenzyme) were 0.00% and 0.02%, respectively. The “Percentage of the compound remaining in human liver microsome” value in series [6] (with coenzyme) is 1.64%; in series [6] (without coenzyme) it was 6.45%. Besides, in series [7], the stability in plasma result is given as “high stability”.
